# Laboratory results from patent US8471005B2 (Cephalon, Inc., priority 2008, dated 2013).
# Read-outs that look alike come from different tables or passages of the source.
# Columns and labels:
# JAK2 = target: T1, JAK2 (Homo sapiens, UniProt O60674); test: Recombinant Human JAK2 Kinase Assay (TRF); type: biochemical; details: read-out: JAK2 Potency
# T1 construct: host or cells: baculovirus expression system
# Procedure, shortened: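 TRF read-out: Eu-N1 PY100 anti-phosphotyrosine antibody detects product. Enzyme is baculovirus-expressed JAK2 at 15 ng/ml; substrate is a biotinyl 15-mer peptide bound to Neutravidin-coated wells. Buffer 20 mM HEPES pH 7.2, 0.2 μM ATP, 1 mM MnCl2, 0.1% BSA, 2.5% DMSO final; 20 min, RT.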
# ALK = target: T2, ALK (Homo sapiens, UniProt Q9UM73); test: ALK Kinase Assay (ELISA/TRF, PLC-γ substrate); type: biochemical; details: read-out: ALK Potency
# T2 construct: host or cells: baculovirus expression system
# Procedure, shortened: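 PLC-γ substrate coated at 10 μg/mL in TBS; reaction started with 30 ng/ml ALK, run 15 min at 37° C. Phosphoproduct detected by TRF with Eu-N1-labeled PT66 anti-phosphotyrosine antibody. IC50 from sigmoidal variable-slope fit of percent inhibition versus log concentration.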
# [1] = JAK2 kinase inhibition, 0.2 μM ATP
# [2] = ALK kinase inhibition, 1 μM ATP
# T1 sequence (O60674 whole entry): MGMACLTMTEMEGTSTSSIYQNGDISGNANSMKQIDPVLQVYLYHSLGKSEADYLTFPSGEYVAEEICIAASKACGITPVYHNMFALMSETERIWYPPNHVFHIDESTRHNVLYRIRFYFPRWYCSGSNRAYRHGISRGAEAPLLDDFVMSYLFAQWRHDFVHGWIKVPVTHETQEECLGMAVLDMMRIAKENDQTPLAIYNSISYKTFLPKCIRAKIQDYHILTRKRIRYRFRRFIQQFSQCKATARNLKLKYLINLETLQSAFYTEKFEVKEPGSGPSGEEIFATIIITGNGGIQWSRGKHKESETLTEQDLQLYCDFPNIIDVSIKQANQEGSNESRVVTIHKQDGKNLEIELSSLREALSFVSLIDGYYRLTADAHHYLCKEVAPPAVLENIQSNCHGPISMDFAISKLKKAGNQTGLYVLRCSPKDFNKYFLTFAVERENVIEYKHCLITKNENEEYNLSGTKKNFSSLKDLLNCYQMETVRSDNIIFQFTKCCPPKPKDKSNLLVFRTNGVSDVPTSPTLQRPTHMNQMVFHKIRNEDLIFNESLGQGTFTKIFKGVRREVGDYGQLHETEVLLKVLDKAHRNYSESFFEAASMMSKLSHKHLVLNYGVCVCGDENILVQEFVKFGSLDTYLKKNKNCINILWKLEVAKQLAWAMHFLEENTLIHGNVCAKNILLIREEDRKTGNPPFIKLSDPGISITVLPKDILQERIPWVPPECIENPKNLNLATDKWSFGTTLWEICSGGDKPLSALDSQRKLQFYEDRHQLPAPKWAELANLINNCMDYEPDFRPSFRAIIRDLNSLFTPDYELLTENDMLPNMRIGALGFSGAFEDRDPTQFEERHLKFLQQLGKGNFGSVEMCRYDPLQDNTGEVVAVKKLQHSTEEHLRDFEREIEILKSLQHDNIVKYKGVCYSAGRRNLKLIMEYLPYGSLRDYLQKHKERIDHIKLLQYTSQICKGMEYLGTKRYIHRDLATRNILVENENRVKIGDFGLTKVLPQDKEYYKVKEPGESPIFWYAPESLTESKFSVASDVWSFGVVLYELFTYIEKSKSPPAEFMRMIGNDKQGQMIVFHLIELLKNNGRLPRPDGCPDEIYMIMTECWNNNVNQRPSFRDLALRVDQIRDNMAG
# T2 sequence (Q9UM73 19-1620): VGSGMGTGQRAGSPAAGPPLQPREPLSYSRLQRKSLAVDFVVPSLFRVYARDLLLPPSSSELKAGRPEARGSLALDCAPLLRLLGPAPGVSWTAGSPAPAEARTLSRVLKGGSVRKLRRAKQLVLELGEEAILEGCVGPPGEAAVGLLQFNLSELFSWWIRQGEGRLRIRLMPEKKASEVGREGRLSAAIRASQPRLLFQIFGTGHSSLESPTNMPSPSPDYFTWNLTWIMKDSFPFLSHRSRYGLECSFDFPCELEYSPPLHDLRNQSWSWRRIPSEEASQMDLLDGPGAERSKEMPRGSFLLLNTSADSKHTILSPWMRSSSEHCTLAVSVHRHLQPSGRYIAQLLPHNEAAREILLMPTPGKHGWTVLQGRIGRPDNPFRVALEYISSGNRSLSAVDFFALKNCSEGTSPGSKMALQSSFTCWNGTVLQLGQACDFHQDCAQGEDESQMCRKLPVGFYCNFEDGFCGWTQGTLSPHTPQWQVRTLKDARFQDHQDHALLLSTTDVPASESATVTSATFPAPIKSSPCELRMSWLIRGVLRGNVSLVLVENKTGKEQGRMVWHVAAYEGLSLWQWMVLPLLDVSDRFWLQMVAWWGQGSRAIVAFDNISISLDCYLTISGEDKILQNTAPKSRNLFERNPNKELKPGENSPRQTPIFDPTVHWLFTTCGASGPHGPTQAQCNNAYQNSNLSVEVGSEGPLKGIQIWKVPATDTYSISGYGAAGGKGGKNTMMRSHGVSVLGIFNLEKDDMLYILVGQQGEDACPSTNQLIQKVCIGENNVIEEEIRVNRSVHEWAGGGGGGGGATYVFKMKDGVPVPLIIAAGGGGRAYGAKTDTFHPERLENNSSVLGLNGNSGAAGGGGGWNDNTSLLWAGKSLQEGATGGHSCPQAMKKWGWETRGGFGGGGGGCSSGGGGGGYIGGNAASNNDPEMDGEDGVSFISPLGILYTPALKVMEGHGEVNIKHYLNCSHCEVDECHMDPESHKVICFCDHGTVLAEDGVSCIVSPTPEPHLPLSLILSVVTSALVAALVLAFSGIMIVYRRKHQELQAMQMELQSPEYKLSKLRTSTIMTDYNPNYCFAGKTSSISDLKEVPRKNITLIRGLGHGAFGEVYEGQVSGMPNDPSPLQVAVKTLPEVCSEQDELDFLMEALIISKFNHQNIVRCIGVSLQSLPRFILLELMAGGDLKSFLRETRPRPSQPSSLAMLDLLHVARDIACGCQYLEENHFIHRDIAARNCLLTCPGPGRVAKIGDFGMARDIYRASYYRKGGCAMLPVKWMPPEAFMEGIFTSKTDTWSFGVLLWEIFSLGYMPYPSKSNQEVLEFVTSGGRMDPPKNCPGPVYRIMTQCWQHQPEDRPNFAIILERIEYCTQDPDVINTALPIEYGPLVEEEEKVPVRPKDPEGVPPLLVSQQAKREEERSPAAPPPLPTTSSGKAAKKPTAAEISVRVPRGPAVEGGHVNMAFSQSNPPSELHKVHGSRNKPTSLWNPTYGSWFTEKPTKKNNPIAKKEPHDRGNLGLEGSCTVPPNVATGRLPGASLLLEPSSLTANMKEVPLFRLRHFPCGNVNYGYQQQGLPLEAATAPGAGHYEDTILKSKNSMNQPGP
IC50 (JAK2; [1]) [nM],IC50 (ALK; [2]) [nM],IC50 (JAK2; JAK2 Kinase Inhibition) [nM],IC50 (ALK; ALK Kinase Inhibition) [nM],SMILES
< 100,100 to 1000,,,"COc1cc(Nc2ncc3ccc(-c4cccc(S(C)(=O)=O)c4)n3n2)ccc1C1CCN(CC(N)=O)CC1 [Example 923, 2-(4-{4-[7-(3-Methanesulfonyl-phenyl)-pyrrolo[2,1-f][1,2,4]triazin-2-ylamino]-2-methoxy-phenyl}-piperidin-1-yl)-acetamide]"
< 100,< 100,,,"COc1cc(Nc2ncc3ccc(-c4ccccc4N(C)S(C)(=O)=O)n3n2)ccc1C1CCN(CC(N)=O)CC1 [Example 914, 2-[4-(4-{7-[2-(Methanesulfonyl-methyl-amino)-phenyl]-pyrrolo[2,1-f][1,2,4]triazin-2-ylamino}-2-methoxy-phenyl)-piperidin-1-yl]-acetamide]"
,,< 100,1000 to 10000,"COc1ccc(-c2ccc3cnc(Nc4ccc5c(c4)CC(=O)N5C)nn23)cn1 [Example 384, 5-[7-(6-Methoxy-pyridin-3-yl)-pyrrolo[2,1-f][1,2,4]triazin-2-ylamino]-1-methyl-1,3-dihydro-indol-2-one]"
< 100,100 to 1000,,,"Cn1cc(-c2ccc3cnc(Nc4ccc(N5CCN(CCO)CC5)cc4)nn23)cn1 [Example 1181, 2-(4-{4-[7-(1-Methyl-1H-pyrazol-4-yl)-pyrrolo[2,1-f][1,2,4]triazin-2-ylamino]-phenyl}-piperazin-1-yl)-ethanol]"
,,1000 to 10000,100 to 1000,"COc1cc(N2CCN(C)CC2)ccc1Nc1ncc2cc3ccccc3n2n1 [Example 267, [2-Methoxy-4-(4-methyl-piperazin-1-yl)-phenyl]-[1,2,4]triazino[1,6-a]indol-2-yl-amine]"
< 100,< 100,,,"COc1cc(N2CCC(N3CCOCC3)CC2)ccc1Nc1ncc2ccc(-c3cccc(CCC#N)c3)n2n1 [Example 1159, 3-(3-{2-[2-Methoxy-4-(4-morpholin-4-yl-piperidin-1-yl)-phenylamino]-pyrrolo[2,1-f][1,2,4]triazin-7-yl}-phenyl)-propionitrile]"
< 100,1000 to 10000,,,"N#CCCn1cccc1-c1ccc2cnc(Nc3cccc(N4CCCC4=O)c3)nn12 [Example 1296, 3-(2-{2-[3-(2-oxo-pyrrolidin-1-yl)-phenylamino]-pyrrolo[2,1-f][1,2,4]triazin-7-yl}-pyrrol-1-yl)-propionitrile]"
,,< 100,< 100,"CCN(c1ccccc1-c1ccc2cnc(Nc3ccc(N4CCC(N5CCOCC5)CC4)cc3OC)nn12)S(C)(=O)=O [Example 1460, N-Ethyl-N-(2-{2-[2-methoxy-4-(4-morpholin-4-yl-piperidin-1-yl)-phenylamino]-pyrrolo[2,1-f][1,2,4]triazin-7-yl}-phenyl)-methanesulfonamide]"
,,< 100,< 100,"COc1ccccc1-c1ccc2cnc(Nc3ccc(OCCN4CCCC4)cc3)nn12 [Example 121, [7-(2-Methoxy-phenyl)-pyrrolo[2,1-f][1,2,4]triazin-2-yl]-[4-(2-pyrrolidin-1-yl-ethoxy)-phenyl]-amine]"
< 100,100 to 1000,,,"CC(C)S(=O)(=O)c1cccc(-c2ccc3cnc(Nc4ccc(C5CCN(CC(N)=O)CC5)cc4)nn23)c1 [Example 570, 2-[4-(4-{7-[3-(Propane-2-sulfonyl)-phenyl]-pyrrolo[2,1-f][1,2,4]triazin-2-ylamino}-phenyl)-piperidin-1-yl]-acetamide]"
,,< 100,< 100,"CN1CCN(c2ccc(Nc3ncc4ccc(-c5ccc6c(c5)OCCO6)n4n3)cc2)CC1 [Example 8, [7-(2,3-Dihydro-benzo[1,4]dioxin-6-yl)-pyrrolo[2,1-f][1,2,4]triazin-2-yl]-[4-(4-methyl-piperazin-1-yl)-phenyl]-amine]"
< 100,1000 to 10000,,,"CN1CCOCc2cc(Nc3ncc4ccc(-c5ccc(S(C)(=O)=O)cc5)n4n3)ccc21 [Example 617, [7-(4-Methanesulfonyl-phenyl)-pyrrolo[2,1-f][1,2,4]triazin-2-yl]-(1-methyl-1,2,3,5-tetrahydro-benzo[e][1,4]oxazepin-7-yl)-amine]"
< 100,> 10000,,,"COc1ccc(Nc2ncc3cc4ccccc4n3n2)cc1 [Example 752, (4-Methoxy-phenyl)-[1,2,4]triazino[1,6-a]indol-2-yl-amine]"
,,1000 to 10000,> 10000,"COCC(C)Oc1ncc2ccc(-c3ccc(S(C)(=O)=O)cc3)n2n1 (stereo not shown) [Example 113, 7-(4-Methanesulfonyl-phenyl)-2-(2-methoxy-1-methyl-ethoxy)-pyrrolo[2,1-f][1,2,4]triazine]"
1000 to 10000,1000 to 10000,,,"COc1ccc(CN2CCN(C)CC2)cc1Nc1ncc2ccc(-c3ccccc3N(C)S(C)(=O)=O)n2n1 [Example 497, N-(2-{2-[2-Methoxy-5-(4-methyl-piperazin-1-ylmethyl)-phenylamino]-pyrrolo[2,1-f][1,2,4]triazin-7-yl}-phenyl)-N-methyl-methanesulfonamide]"
< 100,< 100,,,"CN(c1ccccc1-c1ccc2cnc(Nc3ccc4nn(CCN5CCOCC5)cc4c3)nn12)S(C)(=O)=O [Example 1343, N-Methyl-N-(2-{2-[2-(2-morpholin-4-yl-ethyl)-2H-indazol-5-ylamino]-pyrrolo[2,1-f][1,2,4]triazin-7-yl}-phenyl)-methanesulfonamide]"
,,< 100,100 to 1000,"CC(=O)N1CC(C)(C)c2ccc(Nc3ncc4ccc(-c5cccc(S(=O)(=O)NC(C)(C)C)c5)n4n3)cc21 [Example 1388, 3-[2-(1-Acetyl-3,3-dimethyl-2,3-dihydro-1H-indol-6-ylamino)-pyrrolo[2,1-f][1,2,4]triazin-7-yl]-N-tert-butyl-benzenesulfonamide]"
< 100,100 to 1000,,,"CC(C)(C)NS(=O)(=O)c1cccc(-c2ccc3cnc(Nc4ccc5c(c4)CN(CC(N)=O)C5)nn23)c1 [Example 927, 2-{5-[7-(3-tert-Butylsulfamoyl-phenyl)-pyrrolo[2,1-f][1,2,4]triazin-2-ylamino]-1,3-dihydro-isoindol-2-yl}-acetamide]"
< 100,1000 to 10000,,,"CC(C)(C)NS(=O)(=O)c1cccc(-c2ccc3cnc(Nc4ccc(=O)[nH]c4)nn23)c1 [Example 590, N-tert-Butyl-3-[2-(6-oxo-1,6-dihydro-pyridin-3-ylamino)-pyrrolo[2,1-f][1,2,4]triazin-7-yl]-benzenesulfonamide]"
,,< 100,100 to 1000,COc1ccccc1-c1ccc2cnc(Nc3ccc4c(c3)C(=O)CC3(CCN(C)CC3)O4)nn12 [Example 376]
,,< 100,100 to 1000,"CN1CCN(c2ccc(Nc3ncc4ccc(-c5cccc(S(=O)(=O)NCCO)c5)n4n3)cc2)CC1 [Example 369, N-(2-Hydroxy-ethyl)-3-{2-[4-(4-methyl-piperazin-1-yl)-phenylamino]-pyrrolo[2,1-f][1,2,4]triazin-7-yl}-benzenesulfonamide]"
,,< 100,< 100,"COc1ccccc1-c1cc(C)c2cnc(Nc3ccc(N4CCN(C)CC4)cc3)nn12 [Example 105, [7-(2-Methoxy-phenyl)-5-methyl-pyrrolo[2,1-f][1,2,4]triazin-2-yl]-[4-(4-methyl-piperazin-1-yl)-phenyl]-amine]"
,,< 100,100 to 1000,"CC(C)(C)NS(=O)(=O)c1cccc(-c2ccc3cnc(Nc4ccc(N5CCN(CC(N)=O)CC5)c(F)c4)nn23)c1 [Example 1407, 2-(4-{4-[7-(3-tert-Butylsulfamoyl-phenyl)-pyrrolo[2,1-f][1,2,4]triazin-2-ylamino]-2-fluoro-phenyl}-piperazin-1-yl)-acetamide]"
,,< 100,100 to 1000,"CC(=O)Nc1cccc(Nc2ncc3ccc(-c4ccccc4N(C)S(C)(=O)=O)n3n2)c1 [Example 1375, N-(3-{7-[2-(Methanesulfonyl-methyl-amino)-phenyl]-pyrrolo[2,1-f][1,2,4]triazin-2-ylamino}-phenyl)-acetamide]"
< 100,100 to 1000,,,"CN(c1ccccc1-c1ccc2cnc(Nc3ccc4c(cnn4C)c3)nn12)S(C)(=O)=O [Example 1339, N-Methyl-N-{2-[2-(1-methyl-1H-indazol-5-ylamino)-pyrrolo[2,1-f][1,2,4]triazin-7-yl]-phenyl}-methanesulfonamide]"
< 100,100 to 1000,,,"Cn1cc(-c2ccc3cnc(Nc4ccc5c(c4)CCC(N4CCOCC4)CC5)nn23)cn1 (stereo not shown) [Example 1201, [7-(1-Methyl-1H-pyrazol-4-yl)-pyrrolo[2,1-f][1,2,4]triazin-2-yl]-(7-morpholin-4-yl-6,7,8,9-tetrahydro-5H-benzocyclohepten-2-yl)-amine]"
< 100,< 100,,,"COc1cc(N2CCC(N(C)C)CC2)ccc1Nc1ncc2ccc(-c3ccccc3OC)n2n1 [Example 476, [4-(4-Dimethylamino-piperidin-1-yl)-2-methoxy-phenyl]-[7-(2-methoxy-phenyl)-pyrrolo[2,1-f][1,2,4]triazin-2-yl]-amine]"
< 100,> 10000,,,"CCOC(=O)c1cccc(Nc2ncc3ccc(-c4cccc(S(=O)(=O)NC(C)(C)C)c4)n3n2)c1 [Example 890, 3-[7-(3-tert-Butylsulfamoyl-phenyl)-pyrrolo[2,1f][1,2,4]triazin-2-ylamino]-benzoic acid ethyl ester]"
,,< 100,100 to 1000,"COc1ccc(Cl)cc1-c1ccc2cnc(Nc3cccc(C(=O)N4CCN(C)CC4)c3)nn12 [Example 339, {3-[7-(5-Chloro-2-methoxy-phenyl)-pyrrolo[2,1-f][1,2,4]triazin-2-ylamino]-phenyl}-(4-methyl-piperazin-1-yl)-methanone]"
